Measured values from patent publication US20100129430A1, “LIPOSOME DRUG CARRIERS WITH PH-SENSITIVITY” (priority 2008, published 2010).

Legend:
pKa of lipid headgroups = type: physicochemical; details: lowest value that arranges all release-rate data points in a straight line
Procedure: The Zeta potential of liposomes containing different fractions of the titratable domain-forming lipid DSPA was measured in phosphate buffer at different pH values (7.4, 5.5, and 4.0) using a Zetasizer ZS90 (Malvern instruments, Worcestershire, UK). Measurements were performed in 10 mM PBS with no salt. For these measurements, liposomes (1 mM total lipid) were prepared without grafted PEG-chains on their surface to allow for closer approach of the plane of shear to the physical surface of lipid membranes.
For all lipid fractions, the rate of content release attributed to discontinuities at the interfacial boundaries is linearly proportional to the square root of protonated DSPA lipids and therefore proportional to the total perimeter of the discontinuities' interface (open symbols).
This deviation of the pKa value can be attributed to several factors. First, the proposed model of small, circular domains is certainly an oversimplification. Second, because the apparent pKa of PA should depend on the surface charge density, the values of apparent pKa should be composition-dependent.

[1] = reported value; cited from earlier work

pKa used to calculate the fraction of protonated DSPA lipids (pKa of lipid headgroups): 4.5
Substance: phosphatidic acid
pKa [1]: 4.0
